Literature values, collected in publication PMC8426299, “Effect of severe renal impairment on the pharmacokinetics of brigatinib” (Investigational New Drugs, 2021).

Tested on: 2C8
Set-up: method as in ref 5, 11 = [5]; 5. Alunbrig brigatinib [summary of product characteristics] (2020) Takeda Pharmaceutical Company Limited. https://www.alunbrig.com/assets/pi.pdf . Accessed 9 Mar 2021 || [11]; PMID 31287236; doi:10.1002/cpdd.723; 11. Tugnait M Gupta N Hanley MJ Sonnichsen D Kerstein D Dorer DJ Venkatakrishnan K Narasimhan N Effects of strong CYP2C8 or CYP3A inhibition and CYP3A induction on the pharmacokinetics of brigatinib
Conditions: in vitro; cited from earlier work

For COc1cc(N2CCC(N3CCN(C)CC3)CC2)ccc1Nc1ncc(Cl)c(Nc2ccccc2P(C)(C)=O)n1 [brigatinib], the “contribution of 2C8 to metabolism” value is given as “minor contribution”.
